The term Kd denotes the equilibrium constant for the complex coming apart.

“And” between values parts separate entries of the source, which are not always exact repeats. Equal entries are not always repeated. Where two headings read alike, the source gives them in different places. Bounds are passed on as bounds.

Test [1] relates to Ac-KMe3-G-NH2. The test is described as follows: Amplification in biased A2B dynamic combinatorial library (LC-MS). The conditions noted are these: biased library A:B 2:1, 7.5 mM total; Ac-KMe3-G-NH2 template. How it is done:
Using a biased library in which building blocks A and B were mixed in a 2:1 ratio (7.5 mM total), the selectivity of the receptors for different methylation states of lysine was investigated, using Ac—KMen-G-NH2 as the guests (n=0-3). A diverse library was generated in the absence of a template, with A2 and A2B3 as the dominant species and rac-A2B and meso-A2B constituting only 2.4% and 1.1% of the total library composition respectively.
Dynamic Combinatorial Chemistry. The relevant building blocks were individually dissolved in water, adding sufficient 1.0 M aqueous NaOH to fully deprotonate the thiols and carboxylic acids on the building blocks, using sonication when necessary. The pH of each solution was then adjusted to 8.5 using 1.0 M aqueous HCl and 1.0 M aqueous NaOH. […] The vials were capped and analyzed at various time points.
Analytical LC-MS. […] Mass spectra (ESI+) were acquired in ultrascan mode by using a drying temperature of 350° C., a nebulizer pressure of 45 psi, a drying gas flow of 10 L/min, and a capillary voltage of 3000 V. The reactions were monitored weekly (3 μL injections) until equilibrium was reached after about 3 weeks. […] The peak areas were integrated at 254 nm and the amplification factors were calculated (A.F.=% area of A2B in templated DCL/% area of A2B in untemplated DCL).

The target of test [2] is T1, H3 K9Me2 (FAM-QTAR-KMe2-STG-NH2) (Homo sapiens, UniProt P68431).
T1 construct: peptide consisting of residues 5-11 of histone 3 (H3 K9Men); made in house; host or cells: solid-phase chemical peptide synthesis
Put plainly: Fluorescence anisotropy binding of A2B receptors to FAM-labeled histone 3 peptide. The conditions noted are these: 27° C., 10 mM phosphate buffer pH 8.5; errors in parentheses. How it is done: (§1) Fluorescence anisotropy was used to measure the dissociation constant of rac- and meso-A2B to a peptide consisting of residues 5-11 of histone 3 (H3 K9Men), with each of the methylation states at Lys 9 as well as an N-terminal carboxyfluorescein (FAM) for fluorescence detection. Binding affinities for H3 K9Me3 were also confirmed by ITC (see below).
(§2) H3 K9Men: FAM-QTAR-KMen-STG-NH2, n=0-3
(§3) Fluorescence Anisotropy. Binding assays were performed with purified rac- or meso-A2B and fluorescein labeled histone 3 peptides. Assays were prepared in 384-well plates (Corning) with a total volume of 50 μL per well, containing 20 μM labeled peptide and increasing concentrations of A2B in buffer (10 mM phosphate pH 8.5). Plates were spun down and allowed to incubate for at least 30 minutes before analysis. Fluorescence anisotropy was measured on a PHERAstar (BMG Labtech) using FP485, 520A, and 520B filters at 27° C. The anisotropy data was plotted as a function A2B concentration and each plot was fitted in KaleidaGraph to the following equation (Wang, Y.; Killian, J.; Hamasaki, K.; Rando, R. R. Biochemistry 1996, 35, 12338-12346):
(§4) where r is fluorescence anisotropy, ro is the initial anisotropy value, r∞ is the maximum anisotropy value, a is the peptide concentration, x is the concentration of A2B, and kd is the dissociation constant. All measurements were taken in duplicate or triplicate.

The target in test [3] is T2, H3 K9Me3 (FAM-QTAR-KMe3-STG-NH2) (Homo sapiens, UniProt P68431).
T2 construct: peptide consisting of residues 5-11 of histone 3 (H3 K9Men); made in house; host or cells: solid-phase chemical peptide synthesis
The test is described as above. The conditions noted are these: for Kd: 27° C., 10 mM phosphate buffer pH 8.5, errors in parentheses; for Affinity for H3 K9Me3 peptide (in words): fluorescence anisotropy. The procedure: as §1, §2, §3, §4
(Fluorescence polarisation rises when a labelled molecule tumbles more slowly, as on binding a larger partner.)

The target of test [4] is T3, WGGG-GKMe3 (Histone 3 peptide, Gly8) (Homo sapiens, UniProt P68431, R9G).
T3 construct: made in house; host or cells: solid-phase chemical peptide synthesis
Put plainly: Isothermal titration calorimetry, peptide titrated into A2B. Format: binding. How it is done: FIG. 12. Histone 3 peptide (WGGG-GKMe3) used as the titrant in ITC experiments to confirm A2B binding to KMe3.
Isothermal Titration calorimetry. Isothermal titration calorimetry measurements were conducted using an ITC200 from MicroCal, LLC to verify the binding data obtained by fluorescence anisotropy. A single 0.2 μL aliquot followed by 38 aliquots of 1 μL were titrated into the calorimetric cell every 2.5 minutes. The titrant used to determine the binding to KMe3 was a 2.0 mM solution of the H3 tail peptide in FIG. 12 (in 10 mM phosphate buffer, pH 8.5), containing a Trp for concentration determination and separated from the natural sequence by 3 glycine spacers. This peptide also contained Gly8 as opposed to Arg8 which is found in the native sequence. It has been shown that this mutation has minimal affect on the overall binding affinity. The cell was filled with a 0.2 mM solution of either rac- or meso-A2B (in 10 mM phosphate buffer, pH 8.5). All measurements were carried out at 26° C.
On the technique in general: ITC needs no label: the signal is the heat of the interaction.

The target in test [5] is T4, H3 K9Me (FAM-QTAR-KMe-STG-NH2) (Homo sapiens, UniProt P68431).
T4 construct: peptide consisting of residues 5-11 of histone 3 (H3 K9Men); made in house; host or cells: solid-phase chemical peptide synthesis
Put plainly: Fluorescence anisotropy binding of A2B receptors to FAM-labeled histone 3 peptide. The conditions noted are these: 27° C., 10 mM phosphate buffer pH 8.5; errors in parentheses. How it is done: as §1, §2, §3, §4

Test [6] deals with T5, H3 K9 (unmethylated, FAM-QTAR-K-STG-NH2) (Homo sapiens, UniProt P68431).
T5 construct: peptide consisting of residues 5-11 of histone 3 (H3 K9Men); made in house; host or cells: solid-phase chemical peptide synthesis
The test is described as above. The procedure:
as §1, §2, §3, §4

The target in test [7] is T6, H3 K9Me3 R8G (Homo sapiens, UniProt P68431, R9G).
T6 construct: peptide consisting of residues 5-11 of histone 3 (H3 K9Men); made in house; host or cells: solid-phase chemical peptide synthesis
Put plainly: Fluorescence anisotropy binding to mutant H3 tail with Gly in place of Arg8. Particulars: 27° C., 10 mM phosphate buffer pH 8.5; errors in parentheses. The procedure: FIG. 11. Fluorescence anisotropy of rac-A2B with H3 KMe3 where Arg8 has been mutated to Gly8 (10 mM sodium phosphate buffer pH 8.5).
as §3, §4

For test [8], the target named is T7, H3 tail, Lys9 mutated to Gly (Homo sapiens, UniProt P68431, K10G).
T7 construct: A mutant H3 tail with Gly in place of Arg8; made in house; host or cells: solid-phase chemical peptide synthesis
The test is described as follows: Binding to H3 tail with Lys9 mutated to Gly.

The mark [9] stands for this setting: 26° C., 10 mM phosphate buffer pH 8.5, read-out: Kd by ITC, binding to KMe3.

With `O=C(O)C1=C(C(=O)O)[C@@H]2c3ccc4cc3[C@H]1c1ccc(cc12)SSc1ccc2c(c1)[C@H]1C(C(=O)O)=C(C(=O)O)[C@@H]2c2cc(ccc21)SSc1cc(cc(C(=O)O)c1)SS4` [meso-A2B], in test [1], the “Amplification in templated DCL, KMe3 guest” value is listed as “approximately 10 fold”. The dissociation constant (Kd) in test [2] was 73 µM; in test [3] it was 28 µM; in test [4] (setting [9]), 12.8 µM and 13 µM; in test [4] (titration of WGGG-GKMe3 into receptor, read-out: Kd by ITC, binding to KMe3 (unit inferred)), 12.8 µM. Also, the “Affinity for H3 K9Me3 peptide (in words)” value in test [3] is recorded as “low micromolar affinity”.
Regarding `O=C(O)C1=C(C(=O)O)C2c3ccc4cc3C1c1ccc(cc12)SSc1ccc2c(c1)C1C(C(=O)O)=C(C(=O)O)C2c2cc(ccc21)SSc1cc(cc(C(=O)O)c1)SS4` (racemic) [rac-A2B], in test [1], the “Amplification in templated DCL, KMe3 guest” value was “approximately 10 fold”. Also, the Kd is 166 µM in test [5]; 58 µM in test [2]; above 1200 µM in test [6] (27° C., 10 mM phosphate buffer pH 8.5); 25 µM in test [3]; 20 µM in test [4] (setting [9]); 34 µM in test [7]. In test [6] (fluorescence anisotropy), the “Binding to the unmethylated histone tail (in words)” value is reported as “no appreciable binding”. In addition, the “Affinity for H3 K9Me3 peptide (in words)” value in test [3] is given as “low micromolar affinity”. Moreover, the “Binding to H3 tail with Lys9 mutated to Gly (in words)” value in test [8] was “total loss of binding”.

The values are drawn from US20120190586A1, “Synthetic Receptors for Identification of Protein Posttranslation Modifications” (priority 2009, published 2012).
